Patent US20150150990A1, “ORAL PHARMACEUTICAL COMPOSITIONS IN A SOLID DISPERSION COMPRISING PREFERABLY POSACONAZOLE AND HPMCAs” (Merck Sharp & Dohme Corp., priority 2008, published 2015)
Values after ≈ are worked out from the molar mass of the structure shown.

Assay: Solubility of posaconazole free base
Assay type: physicochemical
Experimental: The provision of a solid composition comprising posaconazole suitable for preparing a solid dosage form for oral administration has heretofore been hampered by the poor solubility and weak basicity of the posaconazole free-base compound. Posaconazole is soluble at low pH. For example, in the environment of the stomach (approximately pH 1) posaconazole free base has a solubility of approximately 0.8 mg/mL. However, when posaconazole dissolved in the stomach fluids reaches the environment of the intestines (typically less acidic than about pH 6.4) a substantial amount of the dissolved posaconazole precipitates, hindering absorption in the intestines. It has been determined that in environments where the pH is about pH 6.4 or more basic the solubility of posaconazole free base is less than about 1 microgram/mL.

solubility (pH 6.4, pH about 6.4 or more basic): < 1 µg/mL
solubility (simulated gastric fluid, environment of the stomach, approximately pH 1): ~800 µg/mL (≈ 1140 µM)
SMILES: CC[C@@H]([C@H](C)O)n1ncn(-c2ccc(N3CCN(c4ccc(OC[C@@H]5CO[C@@](Cn6cncn6)(c6ccc(F)cc6F)C5)cc4)CC3)cc2)c1=O [posaconazole free base, posaconazole]
